Assay results reported in patent publication US8796327B2, “Method for inhibiting production of cytokines of T helper cell type II and/or inhibiting production of chemokines using brazilin” (China Medical University, priority 2010, dated 2014).

Experiments:
EL-4 T lymphoma cells = assay: Trypan blue exclusion assay, cell viability; type: cell-based, mouse; conditions: for Cell viability (%): EL-4 cells
Protocol: First, in an incubator containing 5 vol % of CO2 at 37° C., EL-4 mouse T lymphoma cells (commercially available from ATCC, Manassas, Va., America) were cultured in the DMEM culture medium (containing 10 wt % of thermally deactivated FBS), and were sub-cultured at a ratio of 1:3.
Then, at a density of 5×10^5 counts/ml, the T lymphoma cells were bred in a six-well culture dish, and at the 0th minute, brazilin of different concentrations (0.3, 1, 3, 10, or 30 micromole (μM)) was added into the cell culture solution at an amount of 1 μl/ml-cell culture solution. Then, the cells were put into the incubator to be cultured therein. […] During the process of cell culture, the trypan blue exclusion assay was employed to observe effect of the brazilin on the cell viability, results of which are shown in Table 1 and FIG. 1.

IL-5 mRNA = assay: Real-time PCR of IL-5 mRNA in EL-4 T lymphoma cells; type: cell-based, mouse; conditions: for Expression level of IL-5 mRNA: PMA + cAMP stimulated EL-4 cells, corrected to HPRT
Protocol: (§1) Then, at a density of 5×10^5 counts/ml, the T lymphoma cells were bred in a six-well culture dish, and at the 0th minute, brazilin of different concentrations (0.3, 1, 3, 10, or 30 micromole (μM)) was added into the cell culture solution at an amount of 1 μl/ml-cell culture solution. Then, the cells were put into the incubator to be cultured therein. 30 minutes later, at an amount of 1 μl/ml-cell culture solution, 5 μg/ml PMA and cAMP at a 250 mmol concentration were added to the cell culture solution to stimulate the expression of IL-4 and IL-5 of the T lymphoma cells. During the process of cell culture, the trypan blue exclusion assay was employed to observe effect of the brazilin on the cell viability, results of which are shown in Table 1 and FIG. 1.
(§2) Expression of mRNA of IL-4, IL-5, GATA-3, c-maf, and T-bet were analyzed in a quantitative way through real-time polymerase chain reaction (PCR) by extracting RNA in the cells obtained in Experiment A (using an RNA purifying kit), converting the RNA into cDNA through reverse transcription, and using an ABI PRISM 7700 sequence detector (Applied Biosystems, Foster City, Calif., America) to analyze the gene expression of mRNA. The PCR was carried out under the following conditions: 50° C., 2 minutes; 95° C., 10 minutes; 60° C., 1 minute; then repeating this cycle forty times. A threshold cycle (or referred to as Ct) was used to represent the expression level of each gene, and an expression level of hypoxanthine-guanine phosphoribosy transferase (HPRT) genes of the endogenous control group was used for correction of the expression level of mRNA.

GATA-3 mRNA = assay: Real-time PCR of GATA-3 mRNA in EL-4 T lymphoma cells; type: cell-based, mouse; conditions: for Expression level of GATA-3 mRNA: PMA + cAMP stimulated EL-4 cells, corrected to HPRT
Protocol: as §1, §2

c-maf mRNA = assay: Real-time PCR of c-maf mRNA in EL-4 T lymphoma cells; type: cell-based, mouse; conditions: for Expression level of c-maf mRNA: PMA + cAMP stimulated EL-4 cells, corrected to HPRT
Protocol: as §1, §2

T-bet mRNA = assay: Real-time PCR of T-bet mRNA in EL-4 T lymphoma cells; type: cell-based, mouse; conditions: for Expression level of T-bet mRNA: PMA + cAMP stimulated EL-4 cells, corrected to HPRT
Protocol: as §1, §2

IL-5 = assay: ELISA of IL-5 in bronochial alveolar lavage fluid, mice with asthma (OVA); type: in vivo, BALB/c mice; conditions: for IL-5 concentration (pico-gram/ml): i.p. or i.t., OVA-sensitized BALB/c mice
Protocol: In Example 2, mice with asthma were used to conduct in vivo experiments, and ovalbumin (OVA) was used as an allergen.
The mice were sensitized (or challenged) according to the steps shown in FIG. 9 (see Lee et al., Lentiviral-mediated GATA-3 RNAi decreases allergic airway inflammation and hyperresponsiveness. Molecular Therapy, 2008; 16:60-65, which is incorporated herein in its entirety by reference). First, 50 μg OVA (using 2 mg alumina (Alum, Alumlmuject, Pierce Chemical, Rockford, Ill., USA) as an adjuvant) was injected into six to eight-week-old BALB/c female mice (from National Laboratory Animal Center, Taiwan) by intraperitoneal injection (i.p.). At 0th, 14th, and 28th day, the mice were injected with OVA at the same dosage. Before the administration of OVA at the forty-first and the forty-second days, different dosages of brazilin (high dose: 430 μg/mice; low dose: 43 μg/mice) were administrated to the mice by intraperitoneal injection (i.p.) or intratracheal instillation (i.t.). During the fortieth to the forty-second days, 100 μg OVA was dissolved in 40 μl PBS, and was administrated to the mice by intranasal instillation (i.n.) (once everyday, for three days). At the forty-third day, airway hyperresponsiveness of the mice was observed. […]
In Experiment D, after 24 hours from the last administration of OVA into the noses of the mice, the mice were sacrificed, and the blood was collected from the orbital cavities of the mice. […] Cells obtained after the centrifugation were re-suspended in a 1 ml HBSS buffer solution, and the total cell number was counted with a hemocytometer.
The bronochial alveolar lavage fluid collected in Experiment E was centrifuged at 4° C. and with a revolution speed of 400 g for 10 minutes. After the supernatant was collected, the expression of eotaxin, IL-4, IL-5, and IFN-γ was analyzed with an ELISA kit (R&D Systems, Inc., USA). […]

In the case of `Oc1ccc2c(c1)OC[C@]1(O)Cc3cc(O)c(O)cc3[C@H]21` [brazilin], the “effect on the growth of EL-4 T lymphoma cells” value (EL-4 T lymphoma cells; 0.3-30 μM, result in words) is reported as “no effect”, the cytotoxicity (EL-4 T lymphoma cells; EL-4 T lymphoma cells, 0.3-30 μM, result in words) is reported as “no cytotoxicity” and the “Cell viability (%)” value (EL-4 T lymphoma cells; brazilin 0.3 μM, no PMA + cAMP) is reported as 102.8 ± 6.895%. For the same compound, the “Cell viability (%)” value (EL-4 T lymphoma cells; brazilin 0.3 μM, with PMA + cAMP) was 115.9 ± 6.968%, the “Cell viability (%)” value (EL-4 T lymphoma cells; brazilin 1 μM, no PMA + cAMP) was 106.5 ± 1.190% and the “Cell viability (%)” value (EL-4 T lymphoma cells; brazilin 1 μM, with PMA + cAMP) was 107.4 ± 3.829%. The “Cell viability (%)” value (EL-4 T lymphoma cells; brazilin 3 μM, no PMA + cAMP) was 101.5 ± 4.226%, the “Cell viability (%)” value (EL-4 T lymphoma cells; brazilin 3 μM, with PMA + cAMP) was 109.0 ± 3.764% and the “Cell viability (%)” value (EL-4 T lymphoma cells; brazilin 10 μM, no PMA + cAMP) was 111.5 ± 5.126%. For the same compound, the “Cell viability (%)” value (EL-4 T lymphoma cells; brazilin 10 μM, with PMA + cAMP) was 100.8 ± 3.257%, the “Cell viability (%)” value (EL-4 T lymphoma cells; brazilin 30 μM, no PMA + cAMP) was 98.17 ± 8.439% and the “Cell viability (%)” value (EL-4 T lymphoma cells; brazilin 30 μM, with PMA + cAMP) was 104.7 ± 2.495%. The “expression of mRNA of IL-5” value (IL-5 mRNA; EL-4 cells, result in words) was “inhibited”, the “Expression level of IL-5 mRNA” value (IL-5 mRNA; brazilin 0.3 μM) was 1397 ± 172.2 and the “Expression level of IL-5 mRNA” value (IL-5 mRNA; brazilin 1 μM) was 1225 ± 47.23. For the same compound, the “Expression level of IL-5 mRNA” value (IL-5 mRNA; brazilin 3 μM) was 1009 ± 77.66, the “Expression level of IL-5 mRNA” value (IL-5 mRNA; brazilin 10 μM) was 926.2 ± 40.70 and the “Expression level of IL-5 mRNA” value (IL-5 mRNA; brazilin 30 μM) was 594.8 ± 252.9. The “expression of mRNA of transcription factor GATA-3” value (GATA-3 mRNA; EL-4 cells, result in words) was “inhibited”, the “Expression level of GATA-3 mRNA” value (GATA-3 mRNA; brazilin 0.3 μM) was 3.960 ± 0.1234 and the “Expression level of GATA-3 mRNA” value (GATA-3 mRNA; brazilin 1 μM) was 3.036 ± 0.5622. For the same compound, the “Expression level of GATA-3 mRNA” value (GATA-3 mRNA; brazilin 3 μM) was 2.663 ± 0.6056, the “Expression level of GATA-3 mRNA” value (GATA-3 mRNA; brazilin 10 μM) was 1.812 ± 0.1538 and the “Expression level of GATA-3 mRNA” value (GATA-3 mRNA; brazilin 30 μM) was 1.434 ± 0.2530. The “expression of mRNA of transcription factor c-maf” value (c-maf mRNA; EL-4 cells, result in words) was “inhibited”, the “Expression level of c-maf mRNA” value (c-maf mRNA; brazilin 0.3 μM) was 3.388 ± 0.2410 and the “Expression level of c-maf mRNA” value (c-maf mRNA; brazilin 1 μM) was 3.318 ± 0.1177. The “Expression level of c-maf mRNA” value (c-maf mRNA; brazilin 3 μM) was 2.846 ± 0.2632, the “Expression level of c-maf mRNA” value (c-maf mRNA; brazilin 10 μM) was 1.826 ± 0.6278 and the “Expression level of c-maf mRNA” value (c-maf mRNA; brazilin 30 μM) was 1.302 ± 0.1868. The “expression of mRNA of transcription factor T-bet” value (T-bet mRNA; EL-4 cells, result in words) was “did not inhibit”, the “Expression level of T-bet mRNA” value (T-bet mRNA; brazilin 0.3 μM) was 1.073 ± 0.1762 and the “Expression level of T-bet mRNA” value (T-bet mRNA; brazilin 1 μM) was 1.036 ± 0.1666. The “Expression level of T-bet mRNA” value (T-bet mRNA; brazilin 3 μM) was 1.052 ± 0.09226, the “Expression level of T-bet mRNA” value (T-bet mRNA; brazilin 10 μM) was 1.068 ± 0.1171 and the “Expression level of T-bet mRNA” value (T-bet mRNA; brazilin 30 μM) was 1.054 ± 0.05147. For the same compound, the “production of IL-5 cytokine” value (IL-5; BALB/c mice, result in words) was “inhibited”, the “IL-5 concentration (pico-gram/ml)” value (IL-5; High dose (430 μg/mice)) was 52.10 ± 6.223 pico-gram/ml and the “IL-5 concentration (pico-gram/ml)” value (IL-5; Low dose (43 μg/mice)) was 70.65 ± 6.510 pico-gram/ml.
